The numbers were not newly measured in US20210121480A1, “STABLE PHARMACEUTICAL COMPOSITIONS CONTAINING ESTRADIOL AND PROGESTERONE FOR ORAL ADMINISTRATION” (SLAYBACK PHARMA LLC, priority 2019, published 2021), which cites them from elsewhere.

For this data set the following is noted: reported.

Values after ≈ are worked out from the molar mass of the structure shown.

For the molecule `CC(=O)[C@H]1CC[C@H]2[C@@H]3CCC4=CC(=O)CC[C@]4(C)[C@H]3CC[C@]12C` [Progesterone], the aqueous solubility was 7 ± 0 µg/mL (≈ 22.3 µM).

The aqueous solubility is how much of the substance goes into solution per volume.
